Where a name gives a salt, the structure may show the parent alone.
Target: Glycogen synthase kinase-3 beta (Homo sapiens, UniProt P49841)
Assay: concentration-response blocking of human GSK3B – biochemical, luminescence, cell-free homogeneous, retest, dose response (AID 434954)

Glycogen synthase kinase-3 beta, sequence (P49841 whole entry): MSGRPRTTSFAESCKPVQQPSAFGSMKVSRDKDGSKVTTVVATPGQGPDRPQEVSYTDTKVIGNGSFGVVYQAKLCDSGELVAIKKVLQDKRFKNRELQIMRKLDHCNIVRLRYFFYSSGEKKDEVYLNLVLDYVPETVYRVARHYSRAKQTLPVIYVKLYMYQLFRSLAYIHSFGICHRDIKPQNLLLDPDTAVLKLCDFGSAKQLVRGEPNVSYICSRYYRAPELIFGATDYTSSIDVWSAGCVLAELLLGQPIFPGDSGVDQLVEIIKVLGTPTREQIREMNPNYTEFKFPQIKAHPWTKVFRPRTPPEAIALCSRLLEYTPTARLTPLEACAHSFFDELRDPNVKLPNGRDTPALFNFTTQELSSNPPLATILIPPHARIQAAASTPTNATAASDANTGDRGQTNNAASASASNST

Structure (SMILES) | EC50 [µM]
CCc1cccc(C)c1NC(=O)CSc1nnc(CCCOc2ccc(Cl)cc2Cl)n1C [2-({5-[3-(2,4-dichlorophenoxy)propyl]-4-methyl-4H-1,2,4-triazol-3-yl}thio)-N-(2-ethyl-6-methylphenyl)acetamide] | > 300
O=C1CN=C(c2cccs2)c2c(sc3c2CCCC3)N1 [5-Thiophen-2-yl-1,2,3,4,7,9-hexahydro-10-thia-6,9-diaza-benzo[a]azulen-8-one] | 3.09
O=C(O)c1ccccc1Nc1ccnc(C(F)(F)F)c1 [2-[[2-(trifluoromethyl)-4-pyridinyl]amino]benzoic acid] | > 300
COc1ccc(C(=O)c2coc3ccc(O)c(CN(C)C)c23)cc1 [MLS000115878] | > 300
N#Cc1c2n(c3c(-c4ccccc4)ncnc13)CCC2 [MLS000104266] | 40
CCN1/C(=C/c2ccc3cccc(C)c3[n+]2CC)Sc2ccccc21 [(2Z)-3-ethyl-2-[(1-ethyl-8-methyl-2-quinolin-1-iumyl)methylidene]-1,3-benzothiazole;iodide] | > 300
CCCCn1nc(NC(=O)COC)c2cc3cc(OC)ccc3nc21 [N-(1-butyl-6-methoxy-3-pyrazolo[3,4-b]quinolinyl)-2-methoxyacetamide] | > 300
CC1CCCCN1c1ncnc(N)c1[N+](=O)[O-] (stereo unspecified) [6-(2-methylpiperidin-1-yl)-5-nitro-pyrimidin-4-amine] | 8.18
CCC(C)Nc1nc(N)c([N+](=O)[O-])c(Nc2ccccc2OC)n1 (stereo unspecified) [SMR000434817] | 0.632
COc1cccc(C(=O)Nc2nc3ccccc3s2)c1 [N-Benzothiazol-2-yl-3-methoxy-benzamide] | > 300
COc1ccc(N2CCN(CC(O)COc3c(OC)cccc3OC)CC2)cc1 (stereo unspecified) [1-(2,6-dimethoxyphenoxy)-3-[4-(4-methoxyphenyl)piperazin-1-yl]propan-2-ol;hydrochloride] | > 300
COC(=O)CCC(=O)Oc1ccc(OC(=O)CCC(=O)OC)cc1 [4-O-[4-(4-methoxy-4-oxobutanoyl)oxyphenyl] 1-O-methyl butanedioate] | > 300
Cc1ncsc1CCSc1nc2ccccc2c(=O)n1C [3-methyl-2-{[2-(4-methyl-1,3-thiazol-5-yl)ethyl]thio}-4(3H)-quinazolinone] | 18.8
CCNC(=S)Nc1ccc2cn[nH]c2c1 [SMR000261305] | > 300
COCc1c(C(=O)Nc2ccc(Cl)cc2F)oc2ccccc12 [N-(4-chloro-2-fluorophenyl)-3-(methoxymethyl)-2-benzofurancarboxamide] | > 300
CSc1nc(-c2cccs2)c(C#N)c(=O)[nH]1 [MLS000849828] | > 300
O=C(O)c1cccc(Nc2nc(-c3ccccc3)nc3ccccc23)c1 [SMR000538934] | > 300
Fc1ccc(CSc2nnc(-c3ccccn3)o2)cc1 | > 300
Cc1ccc2c(c1)NC(c1cccs1)C1C(=O)CC(C)(C)CC1=N2 (stereo unspecified) [3,9,9-trimethyl-6-thiophen-2-yl-6,8,10,11-tetrahydro-5H-benzo[b][1,4]benzodiazepin-7-one] | > 300
O=C(O)CSCC(=O)NCc1c(Cl)cccc1Oc1ccccc1 | > 300
CCOc1cc(C2C(C(=O)N3CCCCC3)=C(C)N=C3CC(C)(C)CC(=O)C32)ccc1O (stereo unspecified) [4-(3-ethoxy-4-hydroxyphenyl)-2,7,7-trimethyl-3-[oxo(1-piperidinyl)methyl]-1,4,6,8-tetrahydroquinolin-5-one] | > 300
O=C(NCC(c1ccco1)N1CCc2ccccc2C1)c1ccccc1Cl (stereo unspecified) [2-chloro-N-[2-(3,4-dihydro-1H-isoquinolin-2-yl)-2-(2-furanyl)ethyl]benzamide] | > 300
CSc1nsc(CC=Nc2ccc(Cl)cc2)c1C#N [MLS000539457] | > 300
COc1cc(/C=C2\Oc3cc(O)ccc3C2=O)ccc1O | 12.4
COc1ccccc1-c1nc(C(=O)NCC2CCCO2)cc2c1[nH]c1ccccc12 (stereo unspecified) [1-(2-methoxyphenyl)-N-(oxolan-2-ylmethyl)-9H-pyrido[3,4-b]indole-3-carboxamide] | > 300
COCCn1c(SCC(=O)NC(=O)NCc2ccccc2)nc2ccccc21 [MLS000053169] | > 300

From BindingDB's records for doi:10.7270/Q2TX3CTT (Broad Institute, 2010)
